According to article PMC2707030 (Clinical cancer research : an official journal of the …, 2009):

How the values were obtained:
[1] = Population pharmacokinetics; assay type: in vivo, human
[2] = cited from earlier work
[3] = rats; cited from earlier work
[4] = test system: ATP-binding cassette transporter ABCB1 (P-glycoprotein, MDR1); settings: cited from earlier work
[5] = nonparametric bootstrap, 1342 converged of 1500 runs, 98 patients, final model

**Q.** With `C/C=C1\NC(=O)[C@H]2CSSCC/C=C/[C@H](CC(=O)N[C@H](C(C)C)C(=O)N2)OC(=O)[C@H](C(C)C)NC1=O` [romidepsin] as the molecule, how does the “CL, non-carriers of ABCB1 2677 GA/AA” value ([1]; difference to carriers did not reach statistical criteria (ΔOFV = 3.4)) read?
**A.** Its value is 16 L/h.

**Q.** What about the Estimated elimination half-life ([1]; following 4-hour infusion, 14 or 18 mg/m^2, final two-compartment model) of the same molecule?
**A.** The Estimated elimination half-life was 3.5 h.

**Q.** And the “CL, carriers of ABCB1 2677 GA/AA” value ([1]; n=7, difference to non-carriers did not reach statistical criteria (ΔOFV = 3.4))?
**A.** Its value is 13 L/h.

**Q.** And the “CL, bootstrap analysis median (%RSE)” value [1, 5]?
**A.** Its value is 15.9 (6.2) L/h.

**Q.** What about the “Q, bootstrap analysis median (%RSE)” value [1, 5] of the same molecule?
**A.** The value was 1.01 (14.7) L/h.

**Q.** What about the “V1, bootstrap analysis median (%RSE)” value [1, 5] of the same molecule?
**A.** Its value is 9.71 (8.9) L.

**Q.** What about the “V2, bootstrap analysis median (%RSE)” value [1, 5] of the same molecule?
**A.** The value was 4.73 (11.1) L.

**Q.** What about the “Total clearance reported in adults” value ([2]; dose 13 mg/m^2) of the same molecule?
**A.** The value was 4.8 L/h/m^2.

**Q.** What about the “Mean CL reported in adults” value ([2]; dose 17.8 mg/m^2) of the same molecule?
**A.** Its value is 10.5 L/h/m^2.

**Q.** And the “Fraction of the dose excreted into the bile” value [3]?
**A.** Its value is 66%.

**Q.** And the “Substrate of ABCB1” value [4]?
**A.** Its value is “substrate”.
